Activity calls are given as the source filed them. No cut-off for these calls is given here.
How the values were obtained:
[1] = tested on: EKVX; test: Growth inhibition of human EKVX cells after 48 hrs by sulforhodamine B assay; type: functional
[2] = tested on: HCT-8; test: Cytotoxicity against human HCT8 cells after 72 hrs by MTT assay; type: functional, cell-based
[3] = tested on: A549; test: Growth inhibition of human A549 cells after 48 hrs by sulforhodamine B assay; type: functional; conditions: A549, 48 h
[4] = tested on: NCI-H522; test: Growth inhibition of human NCI-H522 cells after 48 hrs by sulforhodamine B assay; type: functional; conditions: NCI-H522, 48 h
[5] = tested on: NCI-H460; test: Antitumor activity against human H460 cells xenografted in nu/nu BALB/c mouse assessed as tumor growth inhibition at 10 mg/kg, ip qd for 24 days measured on day 25 relative to control; type: functional; conditions: route intraperitoneal, read-out: GI
[6] = tested on: PC-3M; test: Cytotoxicity against human PC3M cells after 72 hrs by MTT assay; type: functional, cell-based
[7] = tested on: SF-268; test: Growth inhibition of human SF268 cells after 48 hrs by sulforhodamine B assay; type: functional; conditions: SF-268, 48 h
[8] = tested on: Mus musculus; test: Antimetastatic activity against mouse 4T1 cells xenografted in BALB/c mouse assessed as reduction of myeloid derived suppressor cells accumulation in bone marrow at 5 mg/kg, ip qd for 23 days by flow cytometry analysis relative to control; type: functional; set-up: scale not given: the % may be the effect or the level left; conditions: route intraperitoneal
[9] = tested on: MDA-MB-231; test: Growth inhibition of human MDA-MB-231 cells after 48 hrs by sulforhodamine B assay; type: functional; conditions: MDA-MB-231, 48 h
[10] = tested on: A2780; test: Cytotoxicity against human A2780 cells after 72 hrs by MTT assay; type: functional, cell-based
[11] = tested on: MDA-MB-231; test: Antitumor activity against human MDA-MB-231 cells xenografted in nu/nu BALB/c mouse assessed as tumor growth inhibition at 20 mg/kg, ip qd for 24 days measured on day 25 relative to control; type: functional; conditions: MDA-MB-231, ip, route intraperitoneal, read-out: GI
[12] = tested on: CCRF-CEM; test: Growth inhibition of human CCRF-CEM cells after 48 hrs by sulforhodamine B assay; type: functional
[13] = tested on: 4T1; test: Antitumor activity against mouse 4T1 cells xenografted in […] mouse assessed as tumor growth inhibition at 10 mg/kg, ip qd for 28 days relative to control; type: functional; conditions: 4T1, ip, 672 h, route intraperitoneal, read-out: GI
[14] = tested on: Mus musculus; test: Toxicity in mouse LLC cells xenografted C57BL/6 mouse assessed as decrease in body weight at 10 mg/kg, ip qd for 15 days; type: organism-based; set-up: dose 10 mg/kg, route intraperitoneal; conditions: in vivo, 360 h
[15] = tested on: Mus musculus; test: Toxicity in ICR mouse assessed as mortality at 112.5 mg/kg, iv; type: organism-based; set-up: dose 112.5 mg/kg, route intravenous; conditions: in vivo
[16] = tested on: CAKI-1; test: Growth inhibition of human Caki1 cells after 48 hrs by sulforhodamine B assay; type: functional; conditions: CAKI-1, 48 h
[17] = tested on: BGC-823; test: Cytotoxicity against human BGC823 cells after 72 hrs by MTT assay; type: functional, cell-based
[18] = tested on: OVCAR-3; test: Growth inhibition of human OVCAR3 cells after 48 hrs by sulforhodamine B assay; type: functional; conditions: OVCAR-3, 48 h
[19] = tested on: MDA-MB-231; test: Antitumor activity against human MDA-MB-231 cells xenografted in nu/nu BALB/c mouse assessed as tumor growth inhibition at 30 mg/kg, ip qd for 12 days measured on day 25 relative to control; type: functional; conditions: MDA-MB-231, ip, route intraperitoneal, read-out: GI
[20] = tested on: DU-145; test: Growth inhibition of human DU145 cells after 48 hrs by sulforhodamine B assay; type: functional; conditions: DU-145, 48 h
[21] = tested on: U-251; test: Growth inhibition of human U251 cells after 48 hrs by sulforhodamine B assay; type: functional; conditions: U-251, 48 h
[22] = tested on: SK-MEL-5; test: Growth inhibition of human SK-MEL-5 cells after 48 hrs by sulforhodamine B assay; type: functional; conditions: SK-MEL-5, 48 h
[23] = tested on: TK-10; test: Growth inhibition of human TK10 cells after 48 hrs by sulforhodamine B assay; type: functional; conditions: TK-10, 48 h
[24] = tested on: HL-60(TB); test: Growth inhibition of human HL-60(TB) cells after 48 hrs by sulforhodamine B assay; type: functional; conditions: HL-60, 48 h
[25] = tested on: MCF7; test: Antitumor activity against human MCF7 cells xenografted in nu/nu BALB/c mouse assessed as tumor growth inhibition at 30 mg/kg, ip qd for 12 days measured on day 36 relative to control; type: functional; conditions: route intraperitoneal, read-out: GI
[26] = tested on: SF-539; test: Growth inhibition of human SF539 cells after 48 hrs by sulforhodamine B assay; type: functional; conditions: SF-539, 48 h
[27] = tested on: SNB-75; test: Growth inhibition of human SNB75 cells after 48 hrs by sulforhodamine B assay; type: functional; conditions: SNB-75, 48 h
[28] = tested on: MOLT-4; test: Growth inhibition of human MOLT4 cells after 48 hrs by sulforhodamine B assay; type: functional; conditions: MOLT-4, 48 h
[29] = tested on: NCI-H1975; test: Antitumor activity against human NCI-H1975 cells xenografted in nu/nu BALB/c mouse assessed as tumor growth inhibition at 30 mg/kg, ip qd for 12 days measured on day 25 relative to control; type: functional; conditions: route intraperitoneal, read-out: GI
[30] = tested on: MCF7; test: Growth inhibition of human MCF7 cells after 48 hrs by sulforhodamine B assay; type: functional; conditions: MCF7, 48 h
[31] = tested on: NCI-H460; test: Antitumor activity against human H460 cells xenografted in nu/nu BALB/c mouse assessed as tumor growth inhibition at 5 mg/kg, ip qd for 24 days measured on day 25 relative to control; type: functional; conditions: route intraperitoneal, read-out: GI
[32] = tested on: KB; test: Cytotoxicity against human KB cells after 72 hrs by MTT assay; type: functional, cell-based
[33] = tested on: HCC 2998; test: Growth inhibition of human HCC2998 cells after 48 hrs by sulforhodamine B assay; type: functional; conditions: HCC 2998, 48 h
[34] = tested on: Mus musculus; test: Antimetastatic activity against mouse 4T1 cells xenografted in BALB/c mouse assessed as reduction of TNFalpha mRNA expression in tumor at 5 mg/kg, ip qd for 23 days by RT-PCR analysis; type: functional, organism-based; set-up: dose 5 mg/kg
[35] = tested on: Mus musculus; test: Antimetastatic activity against mouse 4T1 cells xenografted in BALB/c mouse assessed as reduction of CCL2 mRNA expression in tumor at 5 mg/kg, ip qd for 23 days by RT-PCR analysis; type: functional, organism-based; set-up: dose 5 mg/kg
[36] = tested on: OVCAR-4; test: Growth inhibition of human OVCAR4 cells after 48 hrs by sulforhodamine B assay; type: functional; conditions: OVCAR-4, 48 h
[37] = tested on: 4T1; test: Antitumor activity against mouse 4T1 cells xenografted in […] mouse assessed as tumor growth inhibition at 2.5 mg/kg, ip qd for 28 days relative to control; type: functional; conditions: 4T1, ip, 672 h, route intraperitoneal, read-out: GI
[38] = tested on: COLO 205; test: Growth inhibition of human COLO205 cells after 48 hrs by sulforhodamine B assay; type: functional; conditions: COLO 205, 48 h
[39] = tested on: HCT-15; test: Growth inhibition of human HCT15 cells after 48 hrs by sulforhodamine B assay; type: functional; conditions: HCT-15, 48 h
[40] = tested on: A-431; test: Cytotoxicity against human A431 cells after 72 hrs by MTT assay; type: functional, cell-based
[41] = tested on: NCI-H226; test: Growth inhibition of human NCI-H226 cells after 48 hrs by sulforhodamine B assay; type: functional; conditions: NCI-H226, 48 h
[42] = tested on: UACC-257; test: Growth inhibition of human UACC257 cells after 48 hrs by sulforhodamine B assay; type: functional; conditions: UACC-257, 48 h
[43] = tested on: KETR3; test: Cytotoxicity against human Ketr3 cells after 72 hrs by MTT assay; type: functional, cell-based

SMILES: CC(=O)O[C@H]1C(=O)[C@@]2(C)[C@H]([C@H](OC(=O)c3ccccc3)[C@]3(O)C[C@H](OC(=O)[C@H](OC(=O)CCC(=O)NCCCC[C@H](NC(=O)CC[C@H](NC(=O)[C@H](C)NC(=O)/C=C/c4ccc(Cl)cc4)C(N)=O)C(N)=O)[C@H](NC(=O)c4ccccc4)c4ccccc4)C(C)=C1C3(C)C)[C@]1(OC(C)=O)CO[C@@H]1C[C@@H]2O
- GI50 [1]: < 10 nM
- Activity [2]: Active
- GI50 [3]: < 10 nM
- GI50 [4]: < 10 nM
- inhibition in vivo at 10 mg/kg [5]: 17.3%
- Activity [6]: Active
- GI50 [7]: < 10 nM
- Activity [8]: 45.3%
- GI50 [9]: < 10 nM
- Activity [10]: Active
- inhibition in vivo at 20 mg/kg [11]: 72.2%
- GI50 [12]: < 10 nM
- inhibition in vivo at 10 mg/kg [13]: 45.9%
- Activity [14]: Non-toxic
- Activity [15]: Non-toxic
- GI50 [16]: < 10 nM
- Activity [17]: Active
- GI50 [18]: < 10 nM
- inhibition in vivo at 30 mg/kg [19]: 87%
- GI50 [20]: < 10 nM
- GI50 [21]: < 10 nM
- GI50 [22]: < 10 nM
- GI50 [23]: < 10 nM
- GI50 [24]: < 10 nM
- inhibition in vivo at 30 mg/kg [25]: 100%
- GI50 [26]: < 10 nM
- GI50 [27]: < 10 nM
- GI50 [28]: < 10 nM
- inhibition in vivo at 30 mg/kg [29]: 93.1%
- GI50 [30]: < 10 nM
- inhibition in vivo at 5 mg/kg [31]: 2.15%
- Activity [32]: Active
- GI50 [33]: < 10 nM
- Activity [34]: Active
- Activity [35]: Active
- GI50 [36]: < 10 nM
- inhibition in vivo at 2.5 mg/kg [37]: 27.4%
- GI50 [38]: < 10 nM
- GI50 [39]: < 10 nM
- Activity [40]: Active
- GI50 [41]: < 10 nM
- GI50 [42]: < 10 nM
- Activity [43]: Active

From ChEMBL document CHEMBL1773045, “Conjugate (MTC-220) of muramyl dipeptide analogue and paclitaxel prevents both tumor growth and metastasis in mice” (J Med Chem, 2011)
